For the assay, the system named is Influenza virus A/AA/6/60. It counts as cell-based.

The source of these data is patent US7655252B2 (priority 1999, dated 2010).

For the substance “t-octylphenoxypolyethoxyethanol [TRITON X-100]”, the “inhibition of the infectivity of virus” value is “only partially inhibited”. The “reduction of influenza A infection of MDCK cells” value (30 min) is reported as “completely ineffective”.
